Measured values taken from patent US10039828B2, “Compositions comprising salbutamol sulphate” (MEXICHEM AMANCO HOLDING S.A. DE C.V., priority 2011, dated 2018).

Assay: apparent surfactant dissolution (solubility) in propellant, viewed with the naked eye
Format: physicochemical
Conditions: for Solubility of oleic acid in the propellant / Solubility of sorbitan monooleate in the propellant / Solubility of sorbitan trioleate in the propellant: ambient temperature (19.5-25.0° C.)
Protocol: A number of experiments were conducted to investigate the solubility of various surfactants in R-134a and R-152a. The apparent surfactant dissolution in each propellant was studied at ambient temperature (19.5-25.0° C.) by adding a known quantity of surfactant to a plastic-coated, pressure-resistant, clear glass aerosol bottle. A continuous flow valve was then crimped onto the bottle. A total of 10 grams of each propellant was filled into each aerosol bottle such that the surfactant concentration ranged from 0 to 5% w/w. After addition of propellant, the contents were sonicated for 10 mins and viewed with the naked eye for dissolution.

CCCCCCCC/C=C\CCCCCCCC(=O)O [oleic acid]
solubility in R-152a compared with R-134a (R-152a versus R-134a): much higher | solubility in R-152a compared with any other surfactant (R-152a, versus the other surfactants tested): much higher | Solubility of oleic acid in the propellant (propellant R-134a): Up to 0.05 % w/w | Solubility of oleic acid in the propellant (propellant R-152a): Up to 2.5 % w/w

sorbitan monooleate
Solubility of sorbitan monooleate in the propellant (propellant R-134a): Up to 0.03 % w/w | Solubility of sorbitan monooleate in the propellant (propellant R-152a): Up to 0.05 % w/w

sorbitan trioleate
Solubility of sorbitan trioleate in the propellant (propellant R-134a): Up to 0.05 % w/w | Solubility of sorbitan trioleate in the propellant (propellant R-152a): Up to 0.05 % w/w
